Data on 15 compounds can be found in patent US9840513B2 (AbbVie S.à.r.l., priority 2015, dated 2017).

pEC50: −log10 of the molar value.

The target of this experiment is T1, F508delCFTR cell surface expression in CFBE41o-F508delCFTR-HRP cells (Homo sapiens, UniProt P13569, DEL508-508).
T1 construct: fused on or other part: Horseradish peroxidase (HRP) reporter inserted in the fourth exofacial (extracellular) loop of CFTR; expression is doxycycline-inducible
Nature of the experiment: Cell Surface Expression-Horse Radish Peroxidase (CSE-HRP) Assay. Particulars: for pEC50: CFBE41o-F508delCFTR-HRP cells, 18-24 hours at 33° C., 8-point curve, highest concentration 20 μM; for Maximum % activity (%): maximum at any tested concentration, normalized to on-plate positive control (3 μM). The format is cell-based. Summed up: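 CFBE41o- cells with HRP-tagged F508delCFTR, expression induced by 0.5 μg/mL doxycycline for 72 h at 37 °C, then compound for 18-24 h at 33 °C (8-point, 3-fold, top 20 μM). Surface HRP measured by luminol luminescence; % activity normalised to 3 μM positive-control corrector; EC50 from variable-slope sigmoidal fit, three replicate plates.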

T1 sequence (P13569 with tags, fused parts or gaps DEL508-508 limits assumed): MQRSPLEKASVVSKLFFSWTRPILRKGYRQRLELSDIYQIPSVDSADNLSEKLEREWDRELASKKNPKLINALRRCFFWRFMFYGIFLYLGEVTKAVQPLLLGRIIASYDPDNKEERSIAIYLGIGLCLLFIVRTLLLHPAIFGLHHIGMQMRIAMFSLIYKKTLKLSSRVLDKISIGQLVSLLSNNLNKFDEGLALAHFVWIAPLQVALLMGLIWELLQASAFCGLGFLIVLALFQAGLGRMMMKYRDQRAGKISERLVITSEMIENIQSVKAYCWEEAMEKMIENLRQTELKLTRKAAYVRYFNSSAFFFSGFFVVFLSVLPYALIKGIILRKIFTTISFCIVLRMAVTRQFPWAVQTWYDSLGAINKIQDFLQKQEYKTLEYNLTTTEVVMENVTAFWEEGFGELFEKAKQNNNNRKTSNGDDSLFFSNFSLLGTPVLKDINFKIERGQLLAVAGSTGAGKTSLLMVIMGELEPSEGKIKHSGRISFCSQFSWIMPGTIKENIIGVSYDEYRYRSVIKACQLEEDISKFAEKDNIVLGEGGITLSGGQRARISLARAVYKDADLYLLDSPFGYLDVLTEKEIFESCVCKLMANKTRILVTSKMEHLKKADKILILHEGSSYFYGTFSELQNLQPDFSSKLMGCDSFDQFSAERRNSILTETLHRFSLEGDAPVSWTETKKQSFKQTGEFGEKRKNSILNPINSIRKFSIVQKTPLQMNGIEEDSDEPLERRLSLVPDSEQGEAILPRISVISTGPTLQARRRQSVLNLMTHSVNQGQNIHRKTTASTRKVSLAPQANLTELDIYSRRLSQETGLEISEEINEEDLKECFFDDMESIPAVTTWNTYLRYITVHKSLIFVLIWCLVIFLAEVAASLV
T1 sequence (P13569 919-1480 limits assumed, stated change not applied): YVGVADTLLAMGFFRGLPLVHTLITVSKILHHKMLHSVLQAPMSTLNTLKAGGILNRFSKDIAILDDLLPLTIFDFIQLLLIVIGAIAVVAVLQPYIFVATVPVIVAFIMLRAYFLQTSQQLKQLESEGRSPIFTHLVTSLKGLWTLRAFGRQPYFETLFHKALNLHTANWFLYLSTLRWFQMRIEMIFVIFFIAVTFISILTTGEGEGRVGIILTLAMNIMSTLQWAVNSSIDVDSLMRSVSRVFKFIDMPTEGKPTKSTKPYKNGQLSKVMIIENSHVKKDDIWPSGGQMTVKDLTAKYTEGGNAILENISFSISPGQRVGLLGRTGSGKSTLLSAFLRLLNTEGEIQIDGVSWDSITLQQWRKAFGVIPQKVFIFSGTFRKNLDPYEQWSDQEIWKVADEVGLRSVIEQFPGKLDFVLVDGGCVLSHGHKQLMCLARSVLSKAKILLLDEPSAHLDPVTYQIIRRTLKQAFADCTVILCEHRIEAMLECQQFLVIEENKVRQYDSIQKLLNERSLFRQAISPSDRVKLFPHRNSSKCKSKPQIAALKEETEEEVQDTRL

As to `COC(=O)c1ccc(-c2cccc(NC(=O)[C@@]3(C)COc4cc5c(cc43)OC(F)(F)O5)n2)cc1` [Example 79, methyl 4-(6-{[(7R)-2,2-difluoro-7-methyl-6,7-dihydro-2H-furo[2,3-f][1,3]benzodioxole-7-carbonyl]amino}pyridin-2-yl)benzoate], the pEC50 is 5.93 and the “Maximum % activity (%)” value came out at 151%.

On to `CN1CC2CN(c3cccc(NC(=O)C4(C)COc5cc6c(cc54)OC(F)(F)O6)n3)CC2C1` (stereo not drawn) [Example 107, 2,2-difluoro-7-methyl-N-[6-(5-methylhexahydropyrrolo[3,4-c]pyrrol-2(1H)-yl)pyridin-2-yl]-6,7-dihydro-2H-furo[2,3-f][1,3]benzodioxole-7-carboxamide], for which the pEC50 is 5.52 and the “Maximum % activity (%)” value was found to be 136%.

As to `COC(=O)c1ccc([C@H]2C[C@@H](NC(=O)[C@@]3(C)COc4cc5c(cc43)OC(F)(F)O5)c3ccc(OC)cc3O2)nc1` [Example 89E, methyl 6-[(2R,4R)-4-{[(7R)-2,2-difluoro-7-methyl-6,7-dihydro-2H-furo[2,3-f][1,3]benzodioxole-7-carbonyl]amino}-7-methoxy-3,4-dihydro-2H-1-benzopyran-2-yl]pyridine-3-carboxylate], the pEC50 is 7.74 and the “Maximum % activity (%)” value worked out at 116%.

Consider `Cc1c(C(=O)O)cccc1-c1cccc(NC(=O)[C@@]2(C)COc3cc4c(cc32)OC(F)(F)O4)n1` [Example 122, 3-(6-{[(7R)-2,2-difluoro-7-methyl-6,7-dihydro-2H-furo[2,3-f][1,3]benzodioxole-7-carbonyl]amino}pyridin-2-yl)-2-methylbenzoic acid], for which the pEC50 was 5.71 and the “Maximum % activity (%)” value was 173%.

Consider `Cc1ccc(-c2cccc(C(=O)O)c2)nc1NC(=O)[C@@]1(C)COc2cc3c(cc21)OC(F)(F)O3` [Example 84, 3-(6-{[(7R)-2,2-difluoro-7-methyl-6,7-dihydro-2H-furo[2,3-f][1,3]benzodioxole-7-carbonyl]amino}-5-methylpyridin-2-yl)benzoic acid], for which the pEC50 was 5.12 and the “Maximum % activity (%)” value was 46%.

As for `CC1(C)OC[C@H](CN2CCC([C@@H]3C[C@H](NC(=O)[C@@]4(C)COc5cc6c(cc54)OC(F)(F)O6)c4ccc(OC(F)(F)F)cc4O3)CC2)O1` [Example 226, (7R)—N-[(2S,4S)-2-(1-{[(4S)-2,2-dimethyl-1,3-dioxolan-4-yl]methyl}piperidin-4-yl)-7-(trifluoromethoxy)-3,4-dihydro-2H-1-benzopyran-4-yl]-2,2-difluoro-7-methyl-6,7-dihydro-2H-furo[2,3-f][1,3]benzodioxole-7-carboxamide], the negative-log EC50 (pEC50) is < 4.70 and the “Maximum % activity (%)” value is 18%.

Regarding `C[C@]1(C(=O)N[C@H]2C[C@@H](c3ccc(C(=O)O)cc3)O[C@@H](c3ccccc3)C2)COc2cc3c(cc21)OC(F)(F)O3` (single isomer, unassigned) [Example 45], the pEC50 is 6.04 and the “Maximum % activity (%)” value is 111%.

As to `C[C@]1(C(=O)Nc2cccc(-c3cccc(C(=O)O)c3)n2)COc2cc3c(cc21)OC(F)(F)O3` [Example 73, 3-(6-{[(7R)-2,2-difluoro-7-methyl-6,7-dihydro-2H-furo[2,3-f][1,3]benzodioxole-7-carbonyl]amino}pyridin-2-yl)benzoic acid], the negative-log EC50 (pEC50) is 5.58 and the “Maximum % activity (%)” value is 117%.

Consider `C[C@]1(C(=O)N[C@@H]2C[C@H](c3ccc(C(=O)O)cc3)Oc3ccccc32)COc2cc3c(cc21)OC(F)(F)O3` [Example 23, 4-[(2R,4R)-4-{[(7R)-2,2-difluoro-7-methyl-6,7-dihydro-2H-furo[2,3-f][1,3]benzodioxole-7-carbonyl]amino}-3,4-dihydro-2H-1-benzopyran-2-yl]benzoic acid], for which the pEC50 was 6.74 and the “Maximum % activity (%)” value came out at 127%.

`CC(C)(C)OC(=O)CN1CCC([C@H]2C[C@@H](NC(=O)[C@@]3(C)COc4cc5c(cc43)OC(F)(F)O5)c3ccc(OC(F)(F)F)cc3O2)CC1` [Example 186, tert-butyl {4-[(2R,4R)-4-{[(7R)-2,2-difluoro-7-methyl-6,7-dihydro-2H-furo[2,3-f][1,3]benzodioxole-7-carbonyl]amino}-7-(trifluoromethoxy)-3,4-dihydro-2H-1-benzopyran-2-yl]piperidin-1-yl}acetate]: the negative logarithm of the EC50 (pEC50) is 6.17 and the “Maximum % activity (%)” value worked out at 189%.

Consider `COc1ccc2c(c1)O[C@@H](c1ccc(C(=O)N3CCC(O)(CCO)C3)cn1)C[C@H]2NC(=O)[C@@]1(C)COc2cc3c(cc21)OC(F)(F)O3` (stereo partly drawn) [Example 238, (7R)-2,2-difluoro-N-[(2R,4R)-2-{5-[3-hydroxy-3-(2-hydroxyethyl)pyrrolidine-1-carbonyl]pyridin-2-yl}-7-methoxy-3,4-dihydro-2H-1-benzopyran-4-yl]-7-methyl-6,7-dihydro-2H-furo[2,3-f][1,3]benzodioxole-7-carboxamide], for which the negative logarithm of the EC50 (pEC50) was 7.10 and the “Maximum % activity (%)” value is on record as 113%.

Take `COc1ccc2c(c1)O[C@@H](c1ccc(C(=O)NCCCC(N)=O)cn1)C[C@H]2NC(=O)[C@@]1(C)COc2cc3c(cc21)OC(F)(F)O3` [Example 228, N-(4-amino-4-oxobutyl)-6-[(2R,4R)-4-{[(7R)-2,2-difluoro-7-methyl-6,7-dihydro-2H-furo[2,3-f][1,3]benzodioxole-7-carbonyl]amino}-7-methoxy-3,4-dihydro-2H-1-benzopyran-2-yl]pyridine-3-carboxamide]: the pEC50 was 7.05 and the “Maximum % activity (%)” value was found to be 108%.

In the case of `C[C@]1(C(=O)Nc2cc3cc(C4(COCc5ccccc5)CC4)n(C[C@@H](O)COCc4ccccc4)c3cc2F)COc2cc3c(cc21)OC(F)(F)O3` [Example 286, (7R)—N-(1-[(2R)-3-(benzyloxy)-2-hydroxypropyl]-2-{1-[(benzyloxy)methyl]cyclopropyl}-6-fluoro-1H-indol-5-yl)-2,2-difluoro-7-methyl-6,7-dihydro-2H-furo[2,3-f][1,3]benzodioxole-7-carboxamide], the pEC50 was 6.68 and the “Maximum % activity (%)” value is reported as 120%.

`C[C@]1(C(=O)Nc2cc3cc(C4(COCc5ccccc5)CC4)n(C[C@@H](O)CO)c3cc2F)COc2cc3c(cc21)OC(F)(F)O3` [Example 203, (7R)—N-(2-{1-[(benzyloxy)methyl]cyclopropyl}-1-[(2R)-2,3-dihydroxypropyl]-6-fluoro-1H-indol-5-yl)-2,2-difluoro-7-methyl-6,7-dihydro-2H-furo[2,3-f][1,3]benzodioxole-7-carboxamide]: the pEC50 is 6.18 and the “Maximum % activity (%)” value was found to be 125%.

For the compound `C[C@]1(C(=O)N[C@@H]2C[C@H]([C@H]3CC[C@H](C(=O)Nc4ccccc4O)CC3)Oc3cc(OC(F)(F)F)ccc32)COc2cc3c(cc21)OC(F)(F)O3` [Example 262, (7R)-2,2-difluoro-N-[(2R,4R)-2-{trans-4-[(2-hydroxyphenyl)carbamoyl]cyclohexyl}-7-(trifluoromethoxy)-3,4-dihydro-2H-1-benzopyran-4-yl]-7-methyl-6,7-dihydro-2H-furo[2,3-f][1,3]benzodioxole-7-carboxamide], the pEC50 was 7.05 and the “Maximum % activity (%)” value amounted to 184%.
